Laboratory results reported in publication PMC12188320 (2025).

Tests used:
[1] = tested on: CMYC (DNA, G4) TGGGGAGGGTGGGGAGGGTGGGGAAGG; experiment: CD melting; conditions: Li+ (10 mM LiCl, 100 mM lithium cacodylate; supplement: 90 mM LiCl, 10 mM cacodylate); pH 7; CMYC 5 µM, Ru-PIC 2 equivalents (10 µM)
[2] = tested on: NRAS (RNA, G4) UGUGGGAGGGGCGGGUCUGGGUGC; experiment: CD melting; conditions: Li+ (10 mM LiCl, 100 mM lithium cacodylate); pH 7; NRAS 5 µM, Ru-PIC 2 equivalents (10 µM); no stabilization observed
[3] = tested on: CMYC (DNA, G4) TGGGGAGGGTGGGGAGGGTGGGGAAGG; experiment: absorbance and luminescence titration; conditions: K+ (10 mM potassium phosphate, 100 mM KCl); Ru-PIC 10 µM, CMYC 0-30 µM; no constant
[4] = tested on: NRAS (RNA, G4) UGUGGGAGGGGCGGGUCUGGGUGC; experiment: luminescence and absorbance titration; conditions: K+ (10 mM potassium phosphate, 100 mM KCl); RNase-free buffer; Ru-PIC 2 µM, NRAS 0-6 µM; negligible spectral change; no constant

ΔTm [1]: 9.1 ± 0.3 °C | binding [2]: no | binding [3]: yes | binding [4]: weak
Compound: O=C(O)c1ccc(-c2nc3c4cccnc4c4ncccc4c3[nH]2)cc1.[Ru+2].c1ccc(-c2ccccn2)nc1.c1ccc(-c2ccccn2)nc1
